Here are results for 33 compounds from ChEMBL document CHEMBL1201862, “PubChem BioAssay data set” (2004).

This assay deals with T47D. As to the kind of experiment: inhibition of tumour cell growth, NCI panel, 48 h.

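96-well plates; 48 h exposure; 5 concentrations. Endpoints by linear interpolation between flanking doses. Not reached: highest tested concentration assigned. Here, GI50 denotes the concentration required for 50% inhibition of growth.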 Activity calls are given as the source filed them. No stated cut-off is given here; in the data, active = GI50 up to about 1.1 µM and inactive = higher. Where only a bound is given, the exact number is not on record here.

On to `CC(O)(CNS(=O)(=O)c1ccccc1)c1ccccc1` (stereo not drawn), for which the GI50 is > 100 µM (inactive).
The result for `NC(=O)CC(N)c1nnn[nH]1` (stereo not drawn) reads > 100 µM (inactive).
Take `ClCc1nc2ccccc2[nH]1`: the GI50 was > 100 µM (inactive).
The result for `CN(C)c1ccc(/C=C2\N=C(c3ccccc3)N(c3ccc4c(c3)Sc3cc(N5C(=O)/C(=C/c6ccc(N(C)C)cc6)N=C5c5ccccc5)ccc3N4)C2=O)cc1` reads 19.6 µM (inactive); that for `CC(=O)O[C@H]1C(=O)[C@@]2(C)[C@H]([C@H](OC(=O)c3ccccc3)[C@]3(O)C[C@H](OC(=O)[C@H](O)[C@@H](NC(=O)c4ccccc4)c4ccc5ccccc5c4)C(C)=C1C3(C)C)[C@]1(OC(C)=O)CO[C@@H]1C[C@@H]2O`, 2.16 µM (inactive).
Next, `NC1CC(=O)c2csc(Cl)c21` (stereo not drawn): 3.98 µM (inactive); `COc1c2c(c(OC)c3c1c(=O)c1ccccc1n3C)OCO2`: 6.7 µM (inactive).
On to `CCCCc1nc(C)oc1C(C)C`, for which the GI50 was > 100 µM (inactive).
Take `CCN(CC)CCNc1n[n+]([O-])c2ccccc2[n+]1[O-]`: the GI50 was 5.18 µM (inactive).
On to `CCN(CC)c1cc2c3c(c1)CCCN3CCC2`, for which the GI50 is > 10 µM (inactive).
The result for `O=C(CCCN1CCC2(CC1)C(=O)NC(=O)N2c1ccccc1)c1ccc(F)cc1` reads > 100 µM (inactive); that for `CC[C@H]1C[C@@H](O)[C@@H]2[C@H](O)[C@H](O)CN2C1`, > 100 µM (inactive); that for `O=C1CCC2(O)C3Cc4ccc(Oc5nnnn5-c5ccccc5)c5c4C2(CCN3CC2CC2)C1O5` (stereo not drawn), 39.5 µM (inactive).
The result for `O=C1N/C(=N/N=C/c2cccs2)N/C1=C\c1ccco1` reads > 100 µM (inactive); that for `O=C(N/N=C\c1cccc2ccccc12)Nc1ccc([N+](=O)[O-])cc1`, 4.28 µM (inactive).
Consider `CC12CCC(/C(=N/c3cc(C(F)(F)F)cc(C(F)(F)F)c3)C1=O)C2(C)C` (stereo not drawn), for which the GI50 was 19.8 µM (inactive).
The result for `O=[N+]([O-])c1cc(-[n+]2cc([O-])on2)ccc1F` reads 2.49 µM (inactive); that for `O=C1c2ccccc2-c2cc3ccccc3c(=O)n21`, > 100 µM (inactive).
Consider `C=CC1(CC/C(=C\[N+](=O)[O-])c2ccc(OC)c(OC)c2)OCC(C)(C)CO1`, for which the GI50 was 14.5 µM (inactive).
The result for `CCOC(=O)c1c(N2CCOCC2)[nH]c(=O)c(C(c2ccc(N(C)C)cc2)c2c(O)c(C(=O)OCC)c(N3CCOCC3)[nH]c2=O)c1O` reads > 100 µM (inactive).
On to `CN(C)c1ccc(/C=C/C(=O)c2ccc(O)cc2)cc1`, for which the GI50 is 13.5 µM (inactive).
As for `C=C1CC(Cn2ccc(=O)[nH]c2=O)(c2ccc(OC)cc2)OC1=O` (stereo not drawn), the GI50 is 16.3 µM (inactive).
The result for `O=c1oc2ccc3ccccc3c2cc1-c1nc2ccccc2o1` reads 3.17 µM (inactive).
Regarding `c1ccc([C@@H]2N[C@@]3(CO[Si](c4ccccc4)(c4ccccc4)c4ccccc4)CC[C@H]4CN[C@@H]2[C@H]43)cc1`, the GI50 is 4.07 µM (inactive).
Consider `CCOC(=O)/C(C(=O)Nc1cccc(C(F)(F)F)c1)=C(/N)N1CCCC1`, for which the GI50 was 47.8 µM (inactive).
Next, `COc1cc2c(cc1O)NC(=S)[C@@H]1CCCN1C2=O`: > 100 µM (inactive); `Cc1ccc(Nc2nc(=O)[nH]c(=O)[nH]2)cc1N=[N+]=[N-]`: > 100 µM (inactive); `CN(CCNC(=O)c1cc(-c2ccccc2)nc2ccccc12)CCNC(=O)c1cc(-c2ccccc2)nc2ccccc12`: > 30.5 µM (inactive).
The result for `COC(=O)[C@]12CC[C@H]3CN(C(=O)OCc4ccccc4)[C@H]([C@H]31)[C@H](c1ccco1)N2S(=O)(=O)c1ccc(C)cc1` reads 27.6 µM (inactive).
Next, `COc1cc2oc3c(c(=O)c2c(O)c1/C=C/C(C)C)CCC(C)(C)Oc1cc(O)ccc1-3`: 33.9 µM (inactive); `CCCN(CCCc1ccccc1)CCc1ccc2[nH]c(=S)[nH]c2c1`: 12.1 µM (inactive).
As to `CC[C@]1(Cc2ccc(OC)c(OC)c2)CN(S(=O)(=O)c2ccc(C)cc2)C[C@@H]1OC(C)=O`, the GI50 was 58.5 µM (inactive).
Next, `O=C1Nc2ccccc2/C1=C\c1c(-c2ccccc2)nc2n1CCS2`: 18.7 µM (inactive).
